In PubChem BioAssay (NCI):
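All cell lines were grown in 96-well plates and treated with compound for 48 hours. GI50 = concentration required for 50% inhibition of growth. TGI denotes the concentration required for complete inhibition of growth.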

Tests used:
Test in all cases: inhibition of tumour cell growth, NCI panel, 48 h
[1] = tested on: OVCAR-3 ovarian
[2] = tested on: TK-10 renal
[3] = tested on: NCI-H23 lung
[4] = tested on: U251 CNS
[5] = tested on: ACHN renal
[6] = tested on: SF-539 CNS
[7] = tested on: BT-549 breast
[8] = tested on: HL-60(TB) leukemia
[9] = tested on: UACC-257 melanoma
[10] = tested on: SF-295 CNS
[11] = tested on: SNB-75 CNS
[12] = tested on: OVCAR-4 ovarian
[13] = tested on: NCI-H226 lung
[14] = tested on: SN12C renal
[15] = tested on: DU-145 prostate
[16] = tested on: HOP-92 NSCLC
[17] = tested on: LOX IMVI melanoma
[18] = tested on: A549 NSCLC
[19] = tested on: SK-MEL-2 melanoma
[20] = tested on: HOP-62 NSCLC
[21] = tested on: UACC-62 melanoma
[22] = tested on: HCT-15 colon
[23] = tested on: HS 578T breast
[24] = tested on: K-562 leukemia
[25] = tested on: HCC-2998 colon
[26] = tested on: MDA-MB-231 breast
[27] = tested on: 786-0 renal
[28] = tested on: MDA-MB-435
[29] = tested on: OVCAR-5 ovarian
[30] = tested on: SNB-19 CNS
[31] = tested on: HT29 colon
[32] = tested on: SK-MEL-28 melanoma
[33] = tested on: HCT-116 colon
[34] = tested on: T-47D breast
[35] = tested on: SF-268 CNS
[36] = tested on: NCI-H460 lung
[37] = tested on: CAKI-1 renal
[38] = tested on: A498 renal
[39] = tested on: SK-OV-3 ovarian
[40] = tested on: MOLT-4 leukemia
[41] = tested on: RXF 393 renal
[42] = tested on: CCRF-CEM leukemia
[43] = tested on: MALME-3M melanoma
[44] = tested on: NCI-H522 lung
[45] = tested on: NCI/ADR-RES ovarian
[46] = tested on: EKVX NSCLC
[47] = tested on: OVCAR-8 ovarian
[48] = tested on: COLO 205 colon
[49] = tested on: PC-3 prostate
[50] = tested on: M14 melanoma
[51] = tested on: RPMI-8226 leukemia
[52] = tested on: MCF7 breast
[53] = tested on: UO-31 renal
[54] = tested on: IGROV1 ovarian
[55] = tested on: KM12 colon
[56] = tested on: SW-620 colon
[57] = tested on: SK-MEL-5 melanoma

COc1ccc(Cl)cc1Nc1nc(C(F)(F)F)ccc1C(=O)N/N=C/c1c(Cl)cccc1Cl
GI50 [1]: 1590 nM | TGI [1]: 4.32 µM | GI50 [2]: 6.32 µM | TGI [2]: 50.8 µM | GI50 [3]: 38.5 µM | TGI [3]: > 100 µM | GI50 [4]: 4.97 µM | TGI [4]: > 100 µM | GI50 [5]: 8.01 µM | TGI [5]: > 100000 nM | GI50 [6]: 17.9 µM | TGI [6]: > 100 µM | GI50 [7]: 1200 nM | TGI [7]: 6.84 µM | GI50 [8]: 4.87 µM | TGI [8]: 41.6 µM | GI50 [9]: > 100 µM | TGI [9]: > 100 µM | GI50 [10]: 3.34 µM | TGI [10]: 72.6 µM | GI50 [11]: 11.9 µM | TGI [11]: 42.3 µM | GI50 [12]: 5.16 µM | TGI [12]: > 100 µM | GI50 [13]: 5.54 µM | TGI [13]: > 100 µM | GI50 [14]: 8.78 µM | TGI [14]: > 100 µM | GI50 [15]: 5.91 µM | TGI [15]: > 100 µM | GI50 [16]: 3.46 µM | TGI [16]: 38.4 µM | GI50 [17]: 5.14 µM | TGI [17]: > 100 µM | GI50 [18]: > 100 µM | TGI [18]: > 100 µM | GI50 [19]: 5.62 µM | TGI [19]: > 100 µM | GI50 [20]: 1350 nM | TGI [20]: > 100 µM | GI50 [21]: 7.16 µM | TGI [21]: > 100 µM | GI50 [22]: 3.26 µM | TGI [22]: > 100 µM | GI50 [23]: 20.2 µM | TGI [23]: > 100 µM | GI50 [24]: 3.34 µM | TGI [24]: 32.5 µM | GI50 [25]: 5.37 µM | TGI [25]: > 100 µM | GI50 [26]: 14.5 µM | TGI [26]: > 100 µM | GI50 [27]: 8.49 µM | TGI [27]: > 100 µM | GI50 [28]: > 100 µM | TGI [28]: > 100000 nM | GI50 [29]: > 100 µM | TGI [29]: > 100 µM | GI50 [30]: 11.4 µM | TGI [30]: > 100 µM | GI50 [31]: > 100 µM | TGI [31]: > 100 µM | GI50 [32]: > 100 µM | TGI [32]: > 100000 nM | GI50 [33]: 3.3 µM | TGI [33]: > 100000 nM | GI50 [34]: 4.41 µM | TGI [34]: > 100 µM | GI50 [35]: 5.28 µM | TGI [35]: > 100 µM | GI50 [36]: 4.52 µM | TGI [36]: > 100 µM | GI50 [37]: 9.74 µM | TGI [37]: > 100 µM | GI50 [38]: 12.3 µM | TGI [38]: > 100 µM | GI50 [39]: 7.67 µM | TGI [39]: > 100 µM | GI50 [40]: 2360 nM | TGI [40]: 10.7 µM | GI50 [41]: 17.9 µM | TGI [41]: 58.8 µM | GI50 [42]: 1040 nM | TGI [42]: 6.17 µM | GI50 [43]: 3.46 µM | TGI [43]: 54.7 µM | GI50 [44]: 13.3 µM | TGI [44]: > 100 µM

CC(=O)OC(Cc1cc(C=C(C(F)(F)F)C(F)(F)F)cc(C)n1)(C(F)(F)F)C(F)(F)F
TGI [1]: 3.57 µM | TGI [45]: > 100 µM | TGI [2]: 6.7 µM | TGI [46]: 5.87 µM | TGI [3]: 3.32 µM | TGI [4]: 4.74 µM | TGI [47]: > 100 µM | TGI [5]: 2840 nM | TGI [6]: 5.27 µM | TGI [7]: 4.96 µM | TGI [8]: 1.18 µM | TGI [10]: 8.21 µM | TGI [11]: 7.02 µM | TGI [12]: 4.76 µM | TGI [48]: 2990 nM | TGI [13]: 3.49 µM | TGI [49]: 5.34 µM | TGI [14]: 3.16 µM | TGI [50]: 4.08 µM | TGI [51]: 4.56 µM | TGI [15]: 6.84 µM | TGI [16]: 2.32 µM | TGI [17]: 3.49 µM | TGI [18]: 12.4 µM | TGI [19]: > 100 µM | TGI [20]: 3.42 µM | TGI [21]: 3.54 µM | TGI [22]: > 100 µM | TGI [52]: 970 nM | TGI [23]: 18 µM | TGI [24]: 4.28 µM | TGI [25]: 13.3 µM | TGI [26]: 4.65 µM | TGI [28]: 2830 nM | TGI [29]: 4.58 µM | TGI [30]: 4.38 µM | TGI [31]: 5.32 µM | TGI [32]: 2850 nM | TGI [33]: 2910 nM | TGI [34]: 6.88 µM | TGI [35]: 5.81 µM | TGI [36]: 5.09 µM | TGI [37]: 3.45 µM | TGI [38]: 3.3 µM | TGI [39]: > 51.9 µM | TGI [53]: 3.08 µM | TGI [54]: 1580 nM | TGI [55]: 2980 nM | TGI [41]: 2.4 µM | TGI [56]: 5.67 µM | TGI [43]: > 20.8 µM | TGI [57]: 2820 nM
